N#CCC(N)=O
solubility (mole fraction)
Settings | 283.15 K | 288.15 K | 293.15 K | 298.15 K | 303.15 K | 308.15 K | 313.15 K | 318.15 K | 323.15 K
in ethanol | 0.00653 | 0.00898 | 0.0107 | 0.0129 | 0.0157 | 0.0188 | 0.0233 | 0.0281 | 0.0362
in isopropanol | 0.00409 | 0.00548 | 0.00648 | 0.00816 | 0.0103 | 0.0135 | 0.0168 | 0.0197 | 0.024
in methanol | 0.0186 | 0.0227 | 0.0273 | 0.0332 | 0.0401 | 0.048 | 0.0565 | 0.0684 | 0.08
in n-propanol | 0.00345 | 0.00421 | 0.00565 | 0.0072 | 0.0091 | 0.0115 | 0.0146 | 0.0181 | 0.0229
in water | 0.0171 | 0.0221 | 0.0304 | 0.039 | 0.0505 | 0.0651 | 0.086 | 0.11 | 0.131
